According to patent US10837968B2, “Photoactivatable voltage sensitive dyes” (THE REGENTS OF THE UNIVERSITY OF CALIFORNIA, priority 2014, dated 2020):
Values joined by “and” are separate entries in the source; they are usually repeats but may differ in a detail not shown here. Equal entries are not always repeated. “Also recorded” adds a separate entry of the source.

How the values were obtained:
[1] = Spectroscopic characterization of SPOT in PBS, pH 7, before and after UV illumination; format: physicochemical
Protocol: (§1) FIGS. 1A-1E. Illumination of SPOT dramatically increases fluorescence. Spectroscopic characterization of SPOT in PBS, pH 7. a) Absorbance profile of SPOT before (grey dotted trace) and after (green trace) illumination at 365 nm. The UV-vis spectrum of photoactivated SPOT is identical to a known standard of VF2.1.C1 (black trace). b) Emission spectrum of SPOT before (grey dotted trace) and after illumination (green trace) at 365 nm. c) HEK cells loaded with 200 nM SPOT prior to illumination. d) Cells from c) after illumination with 390 nm light for 30 seconds. e) Quantification of cellular fluorescence from cells stained with SPOT pre- and post-UV photoactivation. Illumination as in panel d) gives a 12-fold increase in fluorescence intensity (n=3).
FIG. 2. Characterization of SPOT photoproducts.
SPOT is readily available in one step from previously reported VoltageFluor compounds (Miller, et al., Natl Acad Sci USA, 2012, 109:2114). Alkylation of VF2.1.C1 with 2-nitro-4,5-dimethoxybenzylbromide in DMF provides SPOT as an analytically pure sample after purification via HPLC. Larger quantities are available through an alternate route in which the sulfonefluorescein head-group is first alkylated and then coupled to the phenylenevinylene molecular wire to give SPOT. We examined the photophysical behavior and characteristics of SPOT under simulated physiological conditions (PBS, pH 7). […] Emission from SPOT is minimal (FIG. 1B, grey trace), as reflected by its low fluorescence quantum yield. UV illumination of SPOT promptly delivers VF, as measured by complete recovery of absorbance profiles characteristic of VF2.1.C1 (FIG. 1A, green and black traces) and a 25-fold increase in fluorescence emission (FIG. 1B green trace).

[2] = system: human embryonic kidney cells (HEK 293); experiment: Cellular fluorescence of SPOT-stained HEK cells pre- and post-UV photoactivation; format: cell-based; settings: HEK cells loaded with 200 nM SPOT; 390 nm light for 30 seconds; n=3
Protocol: as §1
We next turned our attention to assessing the properties of SPOT in living cells. […] Illumination with 390 nm (30 s) light results in an immediate increase in cell membrane-associated fluorescence characteristic of VoltageFluor staining (FIG. 1D). […] Membrane-associated fluorescence depends on prior UV illumination, as examination of areas of the same sample not exposed to light show very little cellular fluorescence. […] Following illumination, the cells stained with SPOT become bright and voltage-sensitive. […]

Compound: COc1cc(COc2cc3oc4cc(=O)c(Cl)cc-4c(-c4ccc(/C=C/c5ccc(/C=C/c6ccc(N(C)C)cc6)cc5)cc4S(=O)(=O)O)c3cc2Cl)c([N+](=O)[O-])cc1OC [SPOT, 2-(2,7-dichloro-6-((4,5-dimethoxy-2-nitrobenzyl)oxy)-3-oxo-3H-xanthen-9-yl)-5-((E)-4-((E)-4-(dimethylamino)styryl)styryl)benzenesulfonic acid]
- absorbance maximum (λmax / strong absorbance) ([1]; PBS, pH 7, before illumination): 400 nm
- fluorescence quantum yield ([1]; PBS, pH 7, before illumination): low
- increase in fluorescence emission after UV illumination ([1]; PBS, pH 7, illumination at 365 nm): 25 fold
- photoproduct of irradiation (HPLC and mass spectrometry) ([1]; phosphate buffered saline, pH 7.0, 365 nm light): clean conversion of SPOT into VF2.1.C1; also recorded: cleanly gives VF2.1.C1
- increase in mean cellular fluorescence intensity following irradiation [2]: 12±1.2 fold and 12 fold
